Series [1] in a line: Log P by HPLC on reversed phase columns (EEC directive 79/831 Annex V.A8; methods [a], [b], [c]). The format is physicochemical. To be noted: method [a]. In outline:
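Reversed-phase HPLC with LC-UV detection, 10→95% acetonitrile linear gradient; aqueous eluent 0.1% formic acid [a], 0.001 M ammonium acetate, neutral [b], or 0.1% phosphoric acid [c]. Calibrated against C3–C16 alkan-2-ones of known Log P by retention-time linear interpolation; multiple values within a method separated by "+".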

For another series, the system named is Puccinia recondita. The series is described as follows: Example B: in vivo preventive test on Puccinia recondita (brown rust on wheat). The note with it: 264 h, read-out: efficacy. The method, then: Example B: In Vivo Preventive Test on Puccinia Recondita (Brown Rust on Wheat)
(§1) The active ingredients were made soluble and homogenized in a mixture of Dimethyl sulfoxide/Acetone/Tween® 80 and then diluted in water to the desired concentration.
(§2) The young plants of wheat were treated by spraying the active ingredient prepared as described above. Control plants were treated only with an aqueous solution of Acetone/Dimethyl sulfoxide/Tween® 80.
After 24 hours, the plants were contaminated by spraying the leaves with an aqueous suspension of Puccinia recondita spores. The contaminated wheat plants were incubated for 24 hours at 20° C. and at 100% relative humidity and then for 10 days at 20° C. and at 70-80% relative humidity.
(§3) The test was evaluated 11 days after the inoculation. 0% means an efficacy which corresponds to that of the control plants while an efficacy of 100% means that no disease was observed.

In the next series the test system is Septoria tritici. The series is described as follows: Example C: in vivo preventive test on Septoria tritici (leaf spot on wheat). The note with it: Zymoseptoria tritici, 576 h, read-out: efficacy. The method, then: Example C: In Vivo Preventive Test on Septoria Tritici (Leaf Spot on Wheat)
as §1, §2
After 24 hours, the plants were contaminated by spraying the leaves with an aqueous suspension of Septoria tritici spores. The contaminated wheat plants were incubated for 72 hours at 18° C. and at 100% relative humidity and then for 21 days at 20° C. and at 90% relative humidity.
The test was evaluated 24 days after the inoculation. 0% means an efficacy which corresponds to that of the control plants while an efficacy of 100% means that no disease was observed.

The subject of a further series is Sphaerotheca fuliginea. The series is described as follows: Example D: in vivo preventive test on Sphaerotheca fuliginea (powdery mildew on cucurbits). The note with it: Podosphaera fuliginea, 360 h, read-out: efficacy. As for the experimental part:
Example D: In Vivo Preventive Test on Sphaerotheca Fuliginea (Powdery Mildew on Cucurbits)
as §1
The young plants of gherkin were treated by spraying the active ingredient prepared as described above. Control plants were treated only with an aqueous solution of Acetone/Dimethyl sulfoxide/Tween® 80.
After 24 hours, the plants were contaminated by spraying the leaves with an aqueous suspension of Sphaerotheca fuliginea spores. The contaminated gherkin plants were incubated for 72 hours at 18° C. and at 100% relative humidity and then for 12 days at 20° C. and at 70-80% relative humidity.
The test was evaluated 15 days after the inoculation. 0% means an efficacy which corresponds to that of the control plants while an efficacy of 100% means that no disease was observed.

The test system of the next series is Uromyces appendiculatus. In words: Example E: in vivo preventive test on Uromyces appendiculatus (bean rust). To be noted: 264 h, read-out: efficacy. The method, then:
Example E: In Vivo Preventive Test on Uromyces Appendiculatus (Bean Rust)
as §1
The young plants of bean were treated by spraying the active ingredient prepared as described above. Control plants were treated only with an aqueous solution of Acetone/Dimethyl sulfoxide/Tween® 80.
After 24 hours, the plants were contaminated by spraying the leaves with an aqueous suspension of Uromyces appendiculatus spores. The contaminated bean plants were incubated for 24 hours at 20° C. and at 100% relative humidity and then for 10 days at 20° C. and at 70-80% relative humidity.
as §3

The mark [2] stands for this setting: reversed phase HPLC column, HPLC on reversed phase columns.
Where [3] appears, read: 500 ppm of active ingredient, wheat plants, preventive spray, evaluated 11 days after inoculation.
[4] abbreviates: 500 ppm of active ingredient, wheat plants, preventive spray, evaluated 24 days after inoculation.
Setting [5] is: 500 ppm of active ingredient, gherkin plants, preventive spray, evaluated 15 days after inoculation.
Where [6] appears, read: 500 ppm of active ingredient, bean plants, preventive spray, evaluated 11 days after inoculation.

The term chromatographic logP denotes a lipophilicity value derived from retention on a column. A lower chromatographic logP goes with a more hydrophilic compound.

Like-named read-outs stand apart in the source and are kept apart here.

In turn, `OC(Cn1cncc1F)c1cnc(Oc2ccc(Br)cc2)cc1C(F)(F)F` (stereo not shown) [I-97, 1-[6-(4-bromophenoxy)-4-(trifluoromethyl)-3-pyridyl]-2-(5-fluoroimidazol-1-yl)ethanol] came in with a chromatographic logP in series [1] (setting [2]) of 2.25. The pest or weed control at 500 ppm lay within 70 to 79% in the series on Puccinia recondita (setting [3]), 90 to 100% in the series with Septoria tritici (setting [4]), 90 to 100% in the series on Sphaerotheca fuliginea (setting [5]) and 90 to 100% in the series on Uromyces appendiculatus (setting [6]).
`N#Cc1cncn1CC(O)(c1ccc(-c2ccc(Cl)cc2)cc1Cl)C1(F)CC1` (stereo not shown) [I-393, 3-[2-[2-chloro-4-(4-chlorophenyl)phenyl]-2-(1-fluorocyclopropyl)-2-hydroxy-ethyl]imidazole-4-carbonitrile] yielded a chromatographic logP in series [1] (setting [2]) of 3.64. Moreover, the pest or weed control at 500 ppm lay in the range of 90 to 100% in the series on Puccinia recondita, 80 to 89% in the series with Septoria tritici, 90 to 100% in the series on Sphaerotheca fuliginea and 90 to 100% in the series with Uromyces appendiculatus.
`CC(O)(Cn1cncc1C#N)c1ccc(Oc2ccc(Br)cc2)cc1C(F)(F)F` (stereo not shown) [I-208, 1-{2-[4-(4-bromophenoxy)-2-(trifluoromethyl)phenyl]-2-hydroxypropyl}-1H-imidazole-5-carbonitrile] had a chromatographic logP in series [1] (setting [2]) of 3.62. In addition, the pest or weed control at 500 ppm with Puccinia recondita (setting [3]) lay in the range of 90 to 100%; with Septoria tritici (setting [4]), 70 to 79%; with Sphaerotheca fuliginea (setting [5]) it was 90 to 100%; in the series on Uromyces appendiculatus (setting [6]), 90 to 100%.
With `NC(=S)c1cncn1CC(O)(c1ccc(Br)cc1Cl)C1(F)CC1` (stereo not shown) [I-432, 3-[2-(4-bromo-2-chloro-phenyl)-2-(1-fluorocyclopropyl)-2-hydroxy-ethyl]imidazole-4-carbothioamide], in series [1] (setting [2]), the chromatographic logP is 1.75. For the same molecule, the pest or weed control at 500 ppm in the series with Puccinia recondita (setting [3]), in the series on Septoria tritici (setting [4]), with Sphaerotheca fuliginea (setting [5]) and in the series with Uromyces appendiculatus (setting [6]) was 90 to 100% in each case.
`C#Cc1ccc(C(O)(Cn2cncc2C#N)C2(F)CC2)c(Cl)c1` (stereo not shown) [I-395, 3-[2-(2-chloro-4-ethynyl-phenyl)-2-(1-fluorocyclopropyl)-2-hydroxy-ethyl]imidazole-4-carbonitrile] registered a chromatographic logP in series [1] (HPLC on reversed phase columns) of 2.39. The pest or weed control at 500 ppm lay in the range of 80 to 89% in the series on Puccinia recondita, 90 to 100% with Septoria tritici, 90 to 100% in the series on Sphaerotheca fuliginea and 90 to 100% in the series with Uromyces appendiculatus.
With `CCCCC(O)(Cn1cncc1C#N)c1ccc(Cl)cc1` (stereo not shown) [I-256, 3-[2-(4-chlorophenyl)-2-hydroxy-hexyl]imidazole-4-carbonitrile], the chromatographic logP in series [1] (setting [2]) is 2.86. Also, the pest or weed control at 500 ppm lay in the range of 80 to 89% with Puccinia recondita (setting [3]), 80 to 89% with Septoria tritici (setting [4]), 90 to 100% in the series on Sphaerotheca fuliginea (setting [5]) and 90 to 100% in the series on Uromyces appendiculatus (setting [6]).
Regarding `C=CC(C)C(O)(Cn1cncc1C#N)C1(Cl)CC1` (stereo not shown) [I-311, 1-[2-(1-chlorocyclopropyl)-2-hydroxy-3-methylpent-4-en-1-yl]-1H-imidazole-5-carbonitrile], the chromatographic logP in series [1] (setting [2]) is 2.21. Moreover, the pest or weed control at 500 ppm in the series with Puccinia recondita (setting [3]) lay within 80 to 89%; with Septoria tritici (setting [4]), 90 to 100%; in the series with Sphaerotheca fuliginea (setting [5]), 90 to 100%; in the series on Uromyces appendiculatus (setting [6]), 90 to 100%.
Turning to `C#CCOc1ccc(C(O)(Cn2cncc2C#N)C2(F)CC2)c(F)c1` (stereo not shown) [I-506, 3-[2-(1-fluorocyclopropyl)-2-(2-fluoro-4-prop-2-ynoxy-phenyl)-2-hydroxy-ethyl]imidazole-4-carbonitrile], in series [1] (HPLC on reversed phase column), the chromatographic logP is 2.23. The pest or weed control at 500 ppm with Puccinia recondita lay within 80 to 89%; with Septoria tritici, 90 to 100%; in the series on Sphaerotheca fuliginea, 90 to 100%; with Uromyces appendiculatus, 80 to 89%.
As for `CC(O)(Cn1cncc1F)c1cnc(Oc2ccc(Br)cc2)cc1C(F)(F)F` (stereo not shown) [I-210, 2-[6-(4-bromophenoxy)-4-(trifluoromethyl)-3-pyridyl]-1-(5-fluoroimidazol-1-yl)propan-2-ol], the chromatographic logP in series [1] (setting [2]) worked out at 2.37. Also, the pest or weed control at 500 ppm with Puccinia recondita (setting [3]) was in the range of 70 to 79%; in the series on Septoria tritici (setting [4]), 90 to 100%; in the series on Sphaerotheca fuliginea (setting [5]) it was 90 to 100%; with Uromyces appendiculatus (setting [6]), 90 to 100%.
`N#Cc1cncn1CC(O)c1ccc(Oc2ccc(Br)cc2)cc1Cl` (stereo not shown) [I-40, 3-[2-[4-(4-bromophenoxy)-2-chloro-phenyl]-2-hydroxy-ethyl]imidazole-4-carbonitrile]: the chromatographic logP in series [1] (setting [2]) came out at 3.31. Also, the pest or weed control at 500 ppm was in the range of 90 to 100% in the series with Puccinia recondita (setting [3]), 80 to 89% with Septoria tritici (setting [4]), 90 to 100% in the series on Sphaerotheca fuliginea (setting [5]) and 90 to 100% in the series with Uromyces appendiculatus (setting [6]).
Molecule `CC(O)(Cn1cncc1C#N)c1ccc(Oc2ccc(Br)cc2)cc1Cl` (stereo not shown) [I-195, 3-[2-[4-(4-bromophenoxy)-2-chloro-phenyl]-2-hydroxy-propyl]imidazole-4-carbonitrile] came in with a chromatographic logP in series [1] (setting [2]) of 3.55. For the same molecule, the pest or weed control at 500 ppm in the series on Puccinia recondita (setting [3]), with Septoria tritici (setting [4]), with Sphaerotheca fuliginea (setting [5]) and with Uromyces appendiculatus (setting [6]) was 90 to 100% in each case.

These data come from US20200031778A1, “NOVEL 5-SUBSTITUTED IMIDAZOLYLMETHYL DERIVATIVES” (Bayer CropScience Aktiengesellschaft, priority 2016, published 2020).
